{
  "source": "paper PMC5772648",
  "about": "“Targeted NUDT5 inhibitors block hormone signaling in breast cancer cells” (Nature Communications, 2018)",
  "key": {"U-2 OS cells": {"system": "U-2 OS cells", "test": "modified alkaline comet assay (OGG1-specific lesions)", "assay_type": "cell-based", "conditions": "10 µM, 24 or 72 h", "method": "The modified comet assay was used to determine relative amounts of OGG1-specific substrates (e.g., 8-oxo-dG) within cellular DNA[9]. U-2 OS cells were transfected with siRNA for 72 h and/or treated with DMSO/500 nM TH1579 for 24 h prior to harvesting by trypsinization. For experiments with TH5427, cells were treated for 24 or 72 h with 10 µM compound.\nIn brief, 120 µL of 1% agarose in PBS was added to one end of a fully-frosted microscope slide (ThermoFisher Scientific) and protected with a 24 × 40 mm coverslip to form the first layer. Once solidified at 4 °C, the second layer was made by mixing 400 µL of 1.2% low-melting agarose in PBS with 100 µL of a 1 × 10^6 cells/mL suspension in PBS kept at 37 °C. The coverslip was removed and 80 µL was added on top of the first layer, spread with a coverslip, and left to solidify at 4 °C for 5–10 minutes. Two slides were made for each condition. […]\nThe slides were visualized using a 10x objective and a Zeiss LSM 780 confocal or Zeiss Axiovert 35 microscope. Comets were analyzed with OpenComet (www.cometbio.org/) or Comet Assay IV (http://www.perceptive.co.uk/products/comet-assay-iv/) software and the tail moments (tail length x percent DNA in the tail) were automatically calculated. […] At least 100 cells were analyzed for each condition per replicate."}, "NUDT5 in HL-60 cells": {"molecular_target": "T1, NUDT5 in HL-60 cells (Homo sapiens, UniProt Q9UKK9)", "T1 construct": "endogenous in cells; host or cells: HL-60", "test": "drug affinity responsive target stability (DARTS)", "assay_type": "cell-based", "conditions": "0.74 and 2.2 µM, 4 h, HL-60 cells in culture", "method": "Target engagement was also determined by drug affinity responsive target stability (DARTS)[33]. HL-60 cells were treated in culture with DMSO (0.1% v/v) or TH5427 at 0.7 or 2.2 µM for 4 h. Following two PBS washes, the cells were lysed with M-PER extraction buffer (ThermoFisher) supplemented with protease inhibitor cocktail (Roche). The lysates were divided into 20 µg aliquots and followed by digestion with pronase at the indicated protein to pronase ratios for 30 min at room temperature. Samples were prepared for western blotting and NUDT5 stabilization was compared with SOD1 as a loading control."}},
  "data": [
    {"smiles": "Cn1c(=O)c2c(nc(N3CCNCC3)n2Cc2nnc(-c3ccc(Cl)c(Cl)c3)o2)n(C)c1=O", "note": "[TH5427]", "values": [
      {"measurement": "OGG1-specific DNA lesions", "setting": "U-2 OS cells", "value": "nor increased OGG1-specific DNA lesions"},
      {"measurement": "NUDT5 stabilization against protease degradation", "setting": "NUDT5 in HL-60 cells", "value": "stabilized NUDT5 against exogenous protease degradation"}
    ]}
  ]
}
